Test results published in ChEMBL document CHEMBL4680330, “Soloxolone methyl, as a 18βH-glycyrrhetinic acid derivate, may result in endoplasmic reticulum stress to induce apoptosis in breast cancer cells” (Bioorg Med Chem, 2021).
Calls of active or inactive are those of the source. The calls are words filed in the database; no cut-off is given here.

Tests used:
MCF7 [1] = experiment: Cytotoxicity against human MCF7 cells assessed as reduction in cell viability incubated for 48 hrs by ATP based luminometry; format: functional; conditions: MCF7, 48 h
MDA-MB-231 [2] = experiment: Cytotoxicity against human MDA-MB-231 cells assessed as reduction in cell viability incubated for 24 hrs by ATP based luminometry; format: functional; conditions: MDA-MB-231, 24 h
MCF7 [3] = experiment: Induction of early apoptosis in human MCF7 cells assessed as increase in pycnotic nuclei at 10 uM incubated for 24 hrs by Hoechst 33342 and PI staining based fluorescence microscopic analysis; format: functional, cell-based
MCF7 [4] = experiment: Induction of early apoptosis in human MCF7 cells assessed as increase in PI negativity at 10 uM incubated for 24 hrs by Hoechst 33342 and PI staining based fluorescence microscopic analysis; format: functional, cell-based
MDA-MB-231 [5] = experiment: Induction of early apoptosis in human MDA-MB-231 cells assessed as increase in PI negativity at 10 uM incubated for 24 hrs by Hoechst 33342 and PI staining based fluorescence microscopic analysis; format: functional, cell-based
MCF7 [6] = experiment: Induction of apoptosis in human MCF7 cells assessed as viable cells at 10 uM incubated for 24 hrs by annexin V-FITC and PI staining based flow cytometry analysis (reference value: 69.60 %); format: functional; conditions: read-out: Activity
MCF7 [7] = experiment: Induction of apoptosis in human MCF7 cells assessed as early apoptotic cells at 10 uM incubated for 24 hrs by annexin V-FITC and PI staining based flow cytometry analysis (reference value: 0.20 %); format: functional
MDA-MB-231 [8] = experiment: Induction of apoptosis in human MDA-MB-231 cells assessed as early apoptotic cells at 10 uM incubated for 24 hrs by annexin V-FITC and PI staining based flow cytometry analysis (reference value: 0.70 %); format: functional
MDA-MB-231 [9] = experiment: Induction of apoptosis in human MDA-MB-231 cells assessed as necrotic cells at 10 uM incubated for 24 hrs by annexin V-FITC and PI staining based flow cytometry analysis (reference value: 0.95 %); format: functional
MCF7 [10] = experiment: Induction of apoptosis in human MCF7 cells at 10 uM by annexin V-FITC and PI staining based flow cytometry analysis; format: functional, cell-based; conditions: TDE = time-dependent effect
[11] = Induction of caspase 3/7 activity in human MCF7 cells assessed as induction of apoptosis by measuring necrotic cells at 10 uM incubated for 24 hrs by flow cytometry analysis (reference value: 3.30 %); format: functional
[12] = Induction of caspase 3/7 activity in human MDA-MB-231 cells assessed as induction of apoptosis by measuring viable cells at 10 uM incubated for 24 hrs by flow cytometry analysis (reference value: 97.25 %); format: functional
[13] = Induction of caspase 3/7 activity in human MDA-MB-231 cells assessed as induction of apoptosis by measuring early apoptotic cells at 10 uM incubated for 24 hrs by flow cytometry analysis (reference value: 0.35 %); format: functional
[14] = Induction of caspase 3/7 activity in human MDA-MB-231 cells assessed as induction of apoptosis by measuring necrotic cells at 10 uM incubated for 24 hrs by flow cytometry analysis (reference value: 0.85 %); format: functional
MCF7 [15] = experiment: Induction of ROS production in human MCF7 cells at 10 uM incubated for 24 hrs by flow cytometry analysis; format: functional, cell-based
MDA-MB-231 [16] = experiment: Induction of ROS production in human MDA-MB-231 cells at 10 uM incubated for 24 hrs by flow cytometry analysis relative to control; format: functional
MDA-MB-231 [17] = experiment: Induction of cell death in human MDA-MB-231 cells assessed as upregulation of HRK gene at 10 uM incubated for 48 hrs by RT-PCR analysis; format: functional, cell-based
MCF7 [18] = experiment: Induction of cell death in human MCF7 cells assessed as downregulation of RIPK gene at 10 uM incubated for 48 hrs by RT-PCR analysis; format: functional, cell-based
MCF7 [19] = experiment: Induction of cell death in human MCF7 cells assessed as upregulation of BECN1 gene at 10 uM measured after 48 hrs by RT-PCR analysis; format: functional, cell-based
MCF7 [20] = experiment: Induction of cell death in human MCF7 cells assessed as downregulation of PARP gene at 10 uM measured after 48 hrs by RT-PCR analysis; format: functional, cell-based
MDA-MB-231 [21] = experiment: Induction of cell death in human MDA-MB-231 cells assessed as downregulation of MLKL gene at 10 uM measured after 48 hrs by RT-PCR analysis; format: functional, cell-based
MDA-MB-231 [22] = experiment: Induction of apoptosis in human MDA-MB-231 cells assessed as PARP level at 10 uM incubated for 24 hrs by Western blot analysis (reference value: 1); format: functional
MDA-MB-231 [23] = experiment: Induction of apoptosis in human MDA-MB-231 cells assessed as cleaved PARP level at 10 uM incubated for 24 hrs by Western blot analysis (reference value: 1); format: functional
MCF7 [24] = experiment: Induction of apoptosis in human MCF7 cells assessed as cleaved pro-caspase 3 level at 10 uM incubated for 24 hrs by Western blot analysis (reference value: 1); format: functional
MDA-MB-231 [25] = experiment: Induction of apoptosis in human MDA-MB-231 cells assessed as pro-caspase 8 level at 10 uM incubated for 24 hrs by Western blot analysis (reference value: 1); format: functional
MDA-MB-231 [26] = experiment: Induction of apoptosis in human MDA-MB-231 cells assessed as cleaved pro-caspase 8 level at 10 uM incubated for 24 hrs by Western blot analysis (reference value: 1); format: functional
MDA-MB-231 [27] = experiment: Induction of apoptosis in human MDA-MB-231 cells assessed as pro-caspase 3 level at 10 uM incubated for 24 hrs by Western blot analysis (reference value: 1); format: functional
MCF7 [28] = experiment: Induction of endoplasmic reticulum stress in human MCF7 cells assessed as BIP expression at 10 uM incubated for 24 hrs by Western blot analysis (reference value: 1); format: functional
MDA-MB-231 [29] = experiment: Induction of endoplasmic reticulum stress in human MDA-MB-231 cells assessed as IRE1-alpha expression at 10 uM incubated for 24 hrs by Western blot analysis (reference value: 1); format: functional
MDA-MB-231 [30] = experiment: Induction of endoplasmic reticulum stress in human MDA-MB-231 cells assessed as BIP expression at 10 uM incubated for 24 hrs by Western blot analysis (reference value: 1); format: functional
MDA-MB-231 [31] = experiment: Induction of late apoptosis in human MDA-MB-231 cells assessed as increase in PI […] at 10 uM by Hoechst 33342 and PI staining based fluorescence microscopic analysis; format: functional, cell-based; conditions: TDE = time-dependent effect

COC(=O)[C@@]1(C)CC[C@]2(C)CC[C@]3(C)[C@H](C(=O)C=C4[C@@]5(C)C=C(C#N)C(=O)C(C)(C)[C@@H]5CC[C@]43C)[C@@H]2C1
IC50 (MCF7 [1]): 4.22 µM | IC50 (MDA-MB-231 [2]): 6.83 µM | Activity (MCF7 [3]): Active | Activity (MCF7 [4]): Active | Activity (MDA-MB-231 [5]): Active | viability at 10 µM (MCF7 [6]): 70.7% | Activity (MCF7 [7]): 0.2% | Activity (MDA-MB-231 [8]): 2.95% | Activity (MDA-MB-231 [9]): 2.25% | Activity (MCF7 [10]): Tde | Activity [11]: 14.7% | Activity [12]: 10.35% | Activity [13]: 12.75% | Activity [14]: 0.5% | Activity (MCF7 [15]): inactive | Activity (MDA-MB-231 [16]): 49.6% | Activity (MDA-MB-231 [17]): Active | Activity (MCF7 [18]): Active | Activity (MCF7 [19]): inactive | Activity (MCF7 [20]): inactive | Activity (MDA-MB-231 [21]): inactive | fold change (FC) (MDA-MB-231 [22]): 0.6 | fold change (FC) (MDA-MB-231 [23]): 6.3 | fold change (FC) (MCF7 [24]): 1.2 | fold change (FC) (MDA-MB-231 [25]): 2.1 | fold change (FC) (MDA-MB-231 [26]): 2.4 | fold change (FC) (MDA-MB-231 [27]): 1.3 | fold change (FC) (MCF7 [28]): 0.8 | fold change (FC) (MDA-MB-231 [29]): 1.1 | fold change (FC) (MDA-MB-231 [30]): 2 | Activity (MDA-MB-231 [31]): Tde
